Some test systems named below: HCT-15; HOP-92; NCI-H522; RXF 393; SK-MEL-5; EKVX; OVCAR-5; COLO 205; 786-0; UACC-62; IGROV-1; A498; OVCAR-3; OVCAR-8; TK-10; UACC-257; CCRF-CEM; BT-549; LOX IMVI.
Holding throughout (assay): growth of human tumour cells (NCI), 48 h

The values that follow come from ChEMBL document CHEMBL1201862, “PubChem BioAssay data set” (2004).

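Interpolation was linear, between the two tested concentrations surrounding the appropriate level; five concentrations were tested over 48 hours in 96-well plates. Here, GI50 denotes the concentration required for 50% inhibition of growth.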 Active and inactive are the calls of the source. Rule as the data show it: active = GI50 up to about 1.1 µM and inactive = higher.

As for `O=C(c1ccccc1)c1c(C(F)(F)F)[n+]([O-])c2cc(F)c(F)cc2[n+]1[O-]`, the GI50 was 0.49 µM in the experiment on HCT-15; 0.238 µM (active) with HOP-92; 0.746 µM (active) in the experiment on NCI-H522; 1 µM (active) in the experiment with RXF 393; 0.877 µM (active) in the experiment on SK-MEL-5; 2.45 µM (inactive) with EKVX. Also, the GI50 in the experiment with OVCAR-5 is 1.51 µM (inactive); in the experiment with COLO 205, 3.86 µM (inactive); in the experiment on 786-0, 0.525 µM (active); in the experiment on UACC-62, 2.22 µM (inactive); in the experiment on IGROV-1 it was 1.6 µM (inactive); with A498 it was 2.56 µM (inactive). Further, the GI50 in the experiment on OVCAR-3 is 0.653 µM (active); with OVCAR-8, 0.634 µM (active); in the experiment on TK-10 it was 0.195 µM (active); in the experiment on UACC-257, 1.79 µM (inactive).

With `CCOc1nc(OCC)nc(-c2cccn2-c2ccccc2)n1`, the GI50 in the experiment on CCRF-CEM is 29.6 µM (inactive); with HCT-15 it was 34.6 µM; in the experiment on NCI-H522, 32.7 µM (inactive); in the experiment with RXF 393, 29.5 µM (inactive); in the experiment on EKVX, 38.2 µM (inactive); in the experiment on OVCAR-5, 74.1 µM (inactive). The GI50 with 786-0 was 45.1 µM (inactive); in the experiment with UACC-62, 27.7 µM (inactive); with IGROV-1 it was 29.6 µM (inactive); in the experiment on A498 it was 47.4 µM (inactive); in the experiment with OVCAR-3 it was 20.7 µM (inactive); in the experiment with OVCAR-8, 35.5 µM (inactive). Also, the GI50 is 23 µM (inactive) with TK-10 and 40.5 µM (inactive) in the experiment with UACC-257.

Regarding `O=C(c1ccncc1)n1nc(-c2ccccc2)c(/N=N/c2ccc([N+](=O)[O-])cc2)c1-c1ccccc1`, the GI50 with CCRF-CEM is > 10 µM (inactive); with HOP-92 it was 27.5 µM (inactive); with NCI-H522 it was 66.7 µM (inactive); in the experiment on SK-MEL-5 it was 27.3 µM (inactive); in the experiment on EKVX, 3.27 µM (inactive); in the experiment with COLO 205, 79.8 µM (inactive). For the same compound, the GI50 with 786-0 is > 100 µM (inactive); with UACC-62 it was 90.8 µM (inactive); in the experiment with IGROV-1, > 100 µM (inactive); with A498, > 100 µM (inactive); with OVCAR-3 it was 50.9 µM (inactive); with OVCAR-8, 91.2 µM (inactive). The GI50 with TK-10 was 57.8 µM (inactive); with UACC-257, 92.3 µM (inactive).

As to `COc1ccccc1C#C/C=C\C#Cc1ccccc1C#N`, the GI50 was 5.26 µM (inactive) with CCRF-CEM; 6.93 µM in the experiment with HCT-15; 31.7 µM (inactive) in the experiment on HOP-92; 5.14 µM (inactive) with NCI-H522; 7.98 µM (inactive) in the experiment on RXF 393; 2.09 µM (inactive) in the experiment on SK-MEL-5. Moreover, the GI50 in the experiment on EKVX was 5.94 µM (inactive); in the experiment on OVCAR-5, 39.2 µM (inactive); with COLO 205, 13.3 µM (inactive); in the experiment on 786-0, 18.5 µM (inactive); with UACC-62, 23.7 µM (inactive); in the experiment with IGROV-1, 10.4 µM (inactive). Also, the GI50 is 4.4 µM (inactive) in the experiment with OVCAR-3, 5.35 µM (inactive) in the experiment with OVCAR-8, 20.7 µM (inactive) in the experiment with TK-10 and 5.2 µM (inactive) in the experiment with UACC-257.

For `CC1NOC(NS(=O)(=O)c2ccc(/N=N/c3c(O)c(C(=O)O)cc4ccccc34)cc2)C1C` (configuration not stated), the GI50 in the experiment on CCRF-CEM was > 100 µM (inactive); in the experiment with HCT-15, above 100 µM; with HOP-92, > 100 µM (inactive); with NCI-H522 it was 72.4 µM (inactive); with RXF 393, > 100 µM (inactive); in the experiment with SK-MEL-5 it was > 100 µM (inactive). Besides, the GI50 in the experiment on EKVX, in the experiment on OVCAR-5, in the experiment on COLO 205, in the experiment on 786-0, in the experiment on UACC-62 and in the experiment on IGROV-1 was > 100 µM (inactive) in each case. Further, the GI50 in the experiment on OVCAR-3, in the experiment with OVCAR-8, in the experiment with TK-10, with BT-549 and in the experiment on UACC-257 was > 100 µM (inactive) throughout.

For the compound `NC(=S)SC1=NC(=O)C2(NN1)c1ccccc1-c1ccccc12`, the GI50 in the experiment on CCRF-CEM was > 10 µM (inactive); in the experiment with HCT-15, above 10 µM; in the experiment with HOP-92 it was > 10 µM (inactive); in the experiment on NCI-H522, 4.27 µM (inactive); with RXF 393, > 10 µM (inactive); in the experiment with SK-MEL-5, 6.12 µM (inactive). In addition, the GI50 with EKVX is 6.58 µM (inactive); with COLO 205, > 10 µM (inactive); in the experiment with 786-0, > 10 µM (inactive); in the experiment with LOX IMVI it was > 10 µM (inactive); in the experiment with UACC-62, > 10 µM (inactive); with IGROV-1 it was > 10 µM (inactive). In addition, the GI50 in the experiment on OVCAR-8, in the experiment on TK-10, in the experiment on BT-549 and in the experiment on UACC-257 was > 10 µM (inactive) in each case.

As for `O=C1NNC2(C(=O)N1)c1ccccc1-c1ccccc12`, the GI50 in the experiment with CCRF-CEM is > 10 µM (inactive); in the experiment with HCT-15, above 10 µM; with HOP-92, > 10 µM (inactive); with NCI-H522 it was > 10 µM (inactive); with RXF 393 it was > 10 µM (inactive); in the experiment on SK-MEL-5, > 10 µM (inactive). The GI50 is 6.71 µM (inactive) in the experiment on EKVX; > 10 µM (inactive) with COLO 205; > 10 µM (inactive) in the experiment with 786-0; > 10 µM (inactive) in the experiment on LOX IMVI; > 10 µM (inactive) in the experiment with UACC-62; > 10 µM (inactive) in the experiment with IGROV-1. Further, the GI50 in the experiment with OVCAR-8, in the experiment with TK-10, in the experiment on BT-549 and in the experiment on UACC-257 was > 10 µM (inactive) each time.

For the compound `Nc1ccc2nc(Nc3ccc(Cl)c(Cl)c3)cnc2c1`, the GI50 with CCRF-CEM is 1.11 µM (active); in the experiment with HCT-15, 16.6 µM; in the experiment with NCI-H522, 6.37 µM (inactive); in the experiment on SK-MEL-5, 37.2 µM (inactive); with EKVX it was 26.8 µM (inactive); in the experiment on OVCAR-5, 19.1 µM (inactive). Further, the GI50 is 19.4 µM (inactive) in the experiment with COLO 205; 15.5 µM (inactive) with 786-0; 14.7 µM (inactive) in the experiment on LOX IMVI; 16.9 µM (inactive) in the experiment on OVCAR-3; 26.2 µM (inactive) with OVCAR-8; 19.2 µM (inactive) in the experiment on TK-10. In the experiment on UACC-257, the GI50 was 25.8 µM (inactive).

As for `c1cc2sc1CSCCSCCSC2`, the GI50 in the experiment with CCRF-CEM was > 100 µM (inactive); in the experiment on HCT-15, above 100 µM; with HOP-92, > 100 µM (inactive); with NCI-H522 it was > 100 µM (inactive); with SK-MEL-5, > 100 µM (inactive); in the experiment on EKVX it was > 100 µM (inactive). Also, the GI50 with OVCAR-5, in the experiment on COLO 205, in the experiment with 786-0, in the experiment with LOX IMVI, in the experiment on UACC-62 and with IGROV-1 was > 100 µM (inactive) throughout. In addition, the GI50 in the experiment with OVCAR-3, in the experiment on OVCAR-8, in the experiment on TK-10, in the experiment with BT-549 and in the experiment with UACC-257 was > 100 µM (inactive) throughout.

As to `CCOC(CN=C=S)OCC`, the GI50 in the experiment on CCRF-CEM was 4.45 µM (inactive); with HCT-15, above 10 µM; with HOP-92 it was 7.67 µM (inactive); in the experiment with NCI-H522 it was > 10 µM (inactive); with RXF 393, > 10 µM (inactive); in the experiment with SK-MEL-5, > 10 µM (inactive). Besides, the GI50 in the experiment with EKVX, in the experiment on COLO 205, in the experiment with 786-0, in the experiment on LOX IMVI, with UACC-62 and in the experiment on IGROV-1 was > 10 µM (inactive) throughout. Besides, the GI50 in the experiment with A498, in the experiment with OVCAR-3, in the experiment on OVCAR-8, with TK-10 and with UACC-257 was > 10 µM (inactive) each time.

With `CCN1C(=O)/C(=C\Nc2ccccc2)S/C1=N/Nc1ncc(CC(=O)Nc2ccccc2C)s1`, the GI50 in the experiment on CCRF-CEM was 82.6 µM (inactive); in the experiment with HCT-15 it was above 100 µM; with HOP-92, 67.6 µM (inactive); in the experiment with NCI-H522, 63.8 µM (inactive); in the experiment on RXF 393, > 100 µM (inactive); in the experiment with SK-MEL-5, 46.5 µM (inactive). Also, the GI50 in the experiment with EKVX is > 100 µM (inactive); in the experiment with OVCAR-5, > 100 µM (inactive); with COLO 205, > 100 µM (inactive); with 786-0 it was > 100 µM (inactive); in the experiment with LOX IMVI, > 100 µM (inactive); with UACC-62, 83.6 µM (inactive). The GI50 with IGROV-1 is > 100 µM (inactive); in the experiment on A498, > 100 µM (inactive); with OVCAR-3 it was 43.7 µM (inactive); in the experiment on OVCAR-8 it was 71.6 µM (inactive); in the experiment with TK-10 it was 75.5 µM (inactive); with UACC-257 it was > 100 µM (inactive).

`Fc1cccc(C2SCc3nc4cc5ccccc5cc4n32)c1` (configuration not stated): the GI50 with CCRF-CEM is > 100 µM (inactive); in the experiment on HCT-15, above 100 µM; with HOP-92, 21 µM (inactive); in the experiment on RXF 393, > 100 µM (inactive); with EKVX it was > 100 µM (inactive); in the experiment on OVCAR-5, > 100 µM (inactive). Further, the GI50 with COLO 205 was > 100 µM (inactive); in the experiment with 786-0, 69.3 µM (inactive); in the experiment with LOX IMVI it was > 100 µM (inactive); with UACC-62, > 100 µM (inactive); in the experiment on IGROV-1 it was > 100 µM (inactive); in the experiment on OVCAR-3 it was > 100 µM (inactive). Moreover, the GI50 with OVCAR-8, in the experiment with TK-10, in the experiment with BT-549 and with UACC-257 was > 100 µM (inactive) each time.

For the compound `CC1(C)C(O)C[C@]23CCC[C@](C)(C[C@@H](O)C12)C3` (some centres not stated), the GI50 in the experiment on CCRF-CEM is > 100 µM (inactive); in the experiment with HCT-15, above 100 µM; in the experiment on HOP-92 it was > 100 µM (inactive); with NCI-H522, > 100 µM (inactive); in the experiment on SK-MEL-5, > 100 µM (inactive); in the experiment with EKVX, > 100 µM (inactive). The GI50 in the experiment on OVCAR-5 was > 100 µM (inactive); with COLO 205, > 100 µM (inactive); in the experiment with 786-0, 32.9 µM (inactive); with LOX IMVI, > 100 µM (inactive); in the experiment with UACC-62, > 100 µM (inactive); in the experiment with IGROV-1 it was > 100 µM (inactive). The GI50 in the experiment on OVCAR-3, in the experiment with OVCAR-8, in the experiment with TK-10, with BT-549 and in the experiment with UACC-257 was > 100 µM (inactive) throughout.
